The source of these data is patent publication US11952364B2, “TRK inhibitors useful as anticancer drugs” (TYLIGAND BIOSCIENCE (SHANGHAI) LIMITED, priority 2018, dated 2024).

In the test the test system is Ba/F3 LMNA-NTRK1-G667C cells. Briefly: Proliferation of Ba/F3 LMNA-NTRK1-G667C cells (CellTiter-Glo). It counts as cell-based, mouse. The text has this: Ba/F3 LMNA-NTRK1-G667C is a stable transgenic cell line constructed by KYinno Biotechnology Co., Ltd. on mouse primary B cell Ba/F3 wherein NTRK1 has a mutation of G to Cat position 667 and is highly expressed and fused with LMNA to form LMNA-NTRK1-G667C. • [Test method]: Promega's CellTiter-Glo® Luminescent Cell Viability Assay kit was used to evaluate the inhibitory activity of the compounds on the proliferation of Ba/F3 LMNA-NTRK1-G667C cells. • [Instrument]: Spectramax M3 multifunctional microplate reader from Molecular Devices. • [Test materials]: Ba/F3 LMNA-NTRK1-G667C cell line (constructed by KYinno Co., Ltd. (Beijing)), 96-well transparent flat-bottomed black-walled cell culture plate (Corning, cat #3603), RPMI-1640 media (GE, cat #SH30027.01), fetal bovine serum FBS (Thermo Fisher, cat #10099-141), CellTiter-Glo® Luminescent Cell Viability Assay kit (Promega, cat #G7572), PBS (Solarbio, cat #P1020), DMSO (Sigma, cat #D2650). • [Experimental procedure]: When resuscitating Ba/F3 LMNA-NTRK1-G667C cells, the freezing tube was quickly shaken in a 37° C. water bath to melt within 1 minute. The thawed cell suspension was mixed uniformly with RPMI1640 medium containing 10% FBS, centrifuged at 1000 rpm for 5 minutes, and the supernatant discarded. 5 mL of complete medium (RPMI1640 medium with 10% FBS) was taken to resuspend the cell pellets, charged into a cell culture flask with a bottom area of 25 cm^2, and incubated in a cell incubator at 37° C., 95% humidity and 5% CO2. Cells were allowed to passage when the number of cells reached about 10^6 cells/mL. For cell passage, the old cell suspension was directly pipetted evenly, 1/5 of the cell suspension was kept, 4 mL of new complete medium was added, after pipetting evenly, the cell flask was placed in the cell incubator for further culturing. Cell plating was performed when the number of cells reached about 10^6 cells/mL again. For cell plating, 1/5 of the cell suspension was kept for further culturing as in the cell passage method, and the remaining 4/5 of the cell suspension was placed in a 15 mL centrifuge tube, detected for cell viability by Trypan blue exclusion method to ensure that cell viability was above 90%. A cell suspension with a density of 5.56×10^4 viable cells/mL was prepared with complete medium, and 90 μL of such cell suspension was added to a 96-well cell culture plate to obtain the cell density of 5000 viable cells/mL in the cell culture plate. A control group containing no cells, no compound and only complete medium (i.e. culture medium control) and a control group containing no compound but containing cells (i.e. cell control) were set. The cell plate was placed in a cell incubator overnight. The 10 mM compound stock solution in DMSO was first serially diluted with DMSO at a dilution factor of 3.16 times, to obtain 9 concentrations, and the 10th concentration was set as DMSO control without compound. Then, PBS was used to dilute the DMSO solutions of compounds of different concentrations, at a dilution factor of 100 times, so that the DMSO concentration in the compound solution of each concentration was 1%. Finally, 10 μL of each of the above solutions was added to the corresponding cell culture plate, so that the initial compound concentration was 10 μM, with the remaining concentrations being successively diluted at a dilution factor of 3.16 times, and the DMSO content in the cell culture plate was 0.1%. The cell plate was placed in a cell incubator and cultured for 72 hours. For endpoint detection, the CellTiter-Glo reagent was melted, and the cell plate was moved to room temperature to equilibrate for 30 minutes, added with 100 μL of CellTiter-Glo for each well, and shaken on an orbital shaker for 5 minutes to fully lyse the cells. The plate was kept at room temperature for 20 minutes to stabilize the luminescence signal, and the luminescence value of each well was scanned with a multi-functional microplate reader at full wavelength. • [Test samples] […]
For orientation: In ATP-based viability assays light output follows the ATP content of the culture.

The mark [1] stands for this setting: Mus musculus, BaF3, 72 h, Table 4, 72 hours, read-out: Ba/F3 LMNA-NTRK1-G667C, IC50.
Where [2] appears, read: Mus musculus, BaF3, Table 4-2, separate test, read-out: Ba/F3 LMNA-NTRK1-G667C, IC50.
The mark [3] stands for this setting: Mus musculus, BaF3, Table 4-1, separate test, read-out: Ba/F3 LMNA-NTRK1-G667C, IC50.
Setting [4] is: Mus musculus, BaF3, Table 9, read-out: Ba/F3 LMNA-NTRK1-G667C cell proliferation inhibitory activity (IC50).

pIC50: −log10 of the molar value. Read-outs that look alike come from different tables or passages of the source. Where only a bound is given, the exact number is not on record here.

`Cn1ncc2cc(Oc3ccc(NC(=O)c4ccc(C(F)(F)F)n(-c5ccc(F)cc5)c4=O)cc3F)c(-c3cn[nH]c3)cc21` [Example 1, N-(3-fluoro-4-(1-methyl-6-(1H-pyrazol-4-yl)-1H-indazol-5-yloxy)phenyl)-1-(4-fluorophenyl)-6-trifluoromethyl-2-oxo-1,2-dihydmpyridine-3-carboxamide monomethanesulfonate]: the pIC50 under setting [1] was 8.70. Same read-out and setting: the same measure for `Cn1ncc2cc(Oc3ccc(NC(=O)c4ccc(C5CC5)n(-c5ccc(F)cc5)c4=O)cc3F)c(-c3cn[nH]c3)cc21` [Example 2, N-(3-fluoro-4-(1-methyl-6-(1H-pyrazol-4-yl)-1H-indazol-5-yloxy)phenyl)-1-(4-fluorophenyl)-6-cyclopropyl-2-oxo-1,2-dihydmpyridine-3-carboxamide]: 8.96; for `CCn1ncc2cc(Oc3ccc(NC(=O)c4ccc(C)n(-c5ccc(F)cc5)c4=O)cc3F)c(-c3cn[nH]c3)cc21` [Example 3, N-(3-fluoro-4-(1-ethyl-6-(1H-pyrazol-4-yl)-1H-indazol-5-yloxy)phenyl)-1-(4-fluorophenyl)-6-methyl-2-oxo-1,2-dihydmpyridine-3-carboxamide]: 8.80; for `Cc1ccc(C(=O)Nc2ccc(Oc3cc4cnn(C(C)C)c4cc3-c3cn[nH]c3)c(F)c2)c(=O)n1-c1ccc(F)cc1` [Example 4, N-(3-fluoro-4-(1-isopropyl-6-(1H-pyrazol-4-yl)-1H-indazol-5-yloxy)phenyl)-1-(4-fluorophenyl)-6-methyl-2-oxo-1,2-dihydmpyridine-3-carboxamide]: 8.55. On the same count and under the same terms, the figure for `CCc1ccc(C(=O)Nc2ccc(Oc3cc4cnn(C)c4cc3-c3cn[nH]c3)c(F)c2)c(=O)n1-c1ccc(F)cc1` [Example 5, N-(3-fluoro-4-(1-methyl-6-(1H-pyrazol-4-yl)-1H-indazol-5-yloxy)phenyl)-1-(4-fluorophenyl)-6-ethyl-2-oxo-1,2-dihydropyridine-3-carboxamide] is over 9.00; for `CC(C)c1ccc(C(=O)Nc2ccc(Oc3cc4cnn(C)c4cc3-c3cn[nH]c3)c(F)c2)c(=O)n1-c1ccc(F)cc1` [Example 6, N-(3-fluoro-4-(1-methyl-6-(1H-pyrazol-4-yl)-1H-indazol-5-yloxy)phenyl)-1-(4-fluorophenyl)-6-isopropyl-2-oxo-1,2-dihydropyridine-3-carboxamide] it is 9.18. As for `CSc1ccc(C(=O)Nc2ccc(Oc3cc4cnn(C)c4cc3-c3cn[nH]c3)c(F)c2)c(=O)n1-c1ccc(F)cc1` [Example 11, N-(3-fluoro-4-(1-methyl-6-(1H-pyrazol-4-yl)-1H-indazol-5-yloxy)phenyl)-1-(4-fluorophenyl)-6-methylthio-2-oxo-1,2-dihydropyidine-3-carboxamide], under setting [2], the pIC50 is 7.98. With `COc1ccc(C(=O)Nc2ccc(Oc3cc4cnn(C)c4cc3-c3cn[nH]c3)c(F)c2)c(=O)n1-c1ccc(F)cc1` [Example 12, N-(3-fluoro-4-(1-methyl-6-(1H-pyrazol-4-yl)-1H-indazol-5-yloxy)phenyl)-1-(4-fluorophenyl)-6-methoxy-2-oxo-1,2-dihydropyridine-3-carboxamide], under setting [3], the pIC50 was over 9.00. For the molecule `CCOc1ccc(C(=O)Nc2ccc(Oc3cc4cnn(C)c4cc3-c3cn[nH]c3)c(F)c2)c(=O)n1-c1ccc(F)cc1` [Example 14, N-(3-fluoro-4-(1-methyl-6-(1H-pyrazol-4-yl)-1H-indazol-5-yloxy)phenyl)-1-(4-fluorophenyl)-6-ethoxy-2-oxo-12-dihydropyridine-3-carboxamide], the pIC50 under setting [2] was 8.07. The same measure, in the same setting: the figure for `Cn1ncc2cc(Oc3ccc(NC(=O)c4ccc(OC5CC5)n(-c5ccc(F)cc5)c4=O)cc3F)c(-c3cn[nH]c3)cc21` [Example 15, N-(3-fluoro-4-(1-methyl-6-(1H-pyrazol-4-yl)-1H-indazol-5-yloxy)phenyl)-1-(4-fluorophenyl)-6-cyclopropoxy-2-oxo-1,2-dihydropyridine-3-carboxamide] is 7.97; for `CC(C)Oc1ccc(C(=O)Nc2ccc(Oc3cc4cnn(C)c4cc3-c3cn[nH]c3)c(F)c2)c(=O)n1-c1ccc(F)cc1` [Example 16, N-(3-fluoro-4-(1-methyl-6-(1H-pyrazol-4-yl)-1H-indazol-5-yloxy)phenyl)-1-(4-fluorophenyl)-6-isopropoxy-2-oxo-1,2-dihydropyridine-3-carboxamide] it is 7.97.

As to `CCc1ccc(C(=O)Nc2ccc(Oc3cc4cnn(CC)c4cc3-c3cn[nH]c3)c(F)c2)c(=O)n1-c1ccc(F)cc1` [Example 18, N-(3-fluoro-4-(1-ethyl-6-(1H-pyrazol-4-yl)-1H-indazol-5-yloxy)phenyl)-1-(4-fluorophenyl)-6-ethyl-2-oxo-1,2-dihydropyridine-3-carboxamide], the pIC50 under setting [3] was 9.00. On the same count and under the same terms, the same measure for `CCn1ncc2cc(Oc3ccc(NC(=O)c4ccc(C5CC5)n(-c5ccc(F)cc5)c4=O)cc3F)c(-c3cn[nH]c3)cc21` [Example 19, N-(3-fluoro-4-(1-ethyl-6-(1H-pyrazol-4-yl)-1H-indazol-5-yloxy)phenyl)-1-(4-fluorophenyl)-6-cyclopropyl-2-oxo-1,2-dihydropyridine-3-carboxamide]: 8.70. As for `CCn1ncc2cc(Oc3ccc(NC(=O)c4ccc(OC)n(-c5ccc(F)cc5)c4=O)cc3F)c(-c3cn[nH]c3)cc21` [Example 23, N-(3-fluoro-4-(1-ethyl-6-(1H-pyrazol-4-yl)-1H-indazol-5-yloxy)phenyl)-1-(4-fluorophenyl)-6-methoxy-2-oxo-1,2-dihydropyridine-3-carboxamide], the pIC50 under setting [3] is 9.00. For `CCOc1ccc(C(=O)Nc2ccc(Oc3cc4cnn(CC)c4cc3-c3cn[nH]c3)c(F)c2)c(=O)n1-c1ccc(F)cc1` [Example 24, N-(3-fluoro-4-(1-ethyl-6-(1H-pyrazol-4-yl)-1H-indazol-5-yloxy)phenyl)-1-(4-fluorophenyl)-6-ethoxy-2-oxo-12-dihydropyridine-3-carboxamide], under “Table 4-2, separate test, read-out: Ba/F3 LMNA-NTRK1-G667C, IC50”, the pIC50 is 7.76.

With `CCn1ncc2cc(Oc3ccc(NC(=O)c4ccc(OC(C)C)n(-c5ccc(F)cc5)c4=O)cc3F)c(-c3cn[nH]c3)cc21` [Example 26, N-(3-fluoro-4-(1-ethyl-6-(1H-pyrazol-4-yl)-1H-indazol-5-yloxy)phenyl)-1-(4-fluorophenyl)-6-isopropoxy-2-oxo-1,2-dihydropyridine-3-carboxamide], under setting [2], the pIC50 is 7.76. For `COc1ccc(C(=O)Nc2ccc(Oc3cc4cnn5c4c(c3-c3cn[nH]c3)CC5)c(F)c2)c(=O)n1-c1ccc(F)cc1` [Example 28, N-(4-((5-(1H-pyrazol-4-yl)-6,7-dihydropyrrolo[3,2,1-hi]-indazol-4-yl)oxy)-3-fluorophenyl)-1-(4-fluorophenyl)-6-methoxy-2-oxo-1,2-dihydropyidine-3-carboxamide], the pIC50 under setting [4] is 7.70. The same measure, in the same setting: the figure for `Cc1ccc(C(=O)Nc2ccc(Oc3cc4cnn5c4c(c3-c3cn[nH]c3)CC5)c(F)c2)c(=O)n1-c1ccc(F)cc1` [Example 31, N-(4-((5-(1H-pyrazol-4-yl)-6,7-dihydropyrrolo[3,2,1-hi]-indazol-4-yl)oxy)-3-fluorophenyl)-1-(4-fluorophenyl)-6-methyl-2-oxo-1,2-dihydropyridine-3-carboxamide] is 7.48.
